Measurements published in ChEMBL document CHEMBL5465560, “Selectivity Literature for EUbOPEN Chemogenomic Library” (2024).

Legend:
[1] = molecular target: Ribosomal protein S6 kinase alpha-1 (Homo sapiens, UniProt Q15418); test: Selectivity interaction (KinomeScan (DiscoverX)) EUB0000229b RPS6KA1; conditions: at 10 µM
[2] = molecular target: STE20-like serine/threonine-protein kinase (Homo sapiens, UniProt Q9H2G2); test: Selectivity interaction (KinomeScan (DiscoverX)) EUB0000229b SLK; conditions: at 10 µM
[3] = molecular target: Protein arginine N-methyltransferase 5 (Homo sapiens, UniProt O14744); conditions: at 10 µM
[4] = molecular target: T1, NUAK family SNF1-like kinase 1 (Homo sapiens) (UniProt O60285); test: Selectivity interaction (KinomeScan (DiscoverX)) EUB0000045b NUAK1
T1 sequence (whole entry): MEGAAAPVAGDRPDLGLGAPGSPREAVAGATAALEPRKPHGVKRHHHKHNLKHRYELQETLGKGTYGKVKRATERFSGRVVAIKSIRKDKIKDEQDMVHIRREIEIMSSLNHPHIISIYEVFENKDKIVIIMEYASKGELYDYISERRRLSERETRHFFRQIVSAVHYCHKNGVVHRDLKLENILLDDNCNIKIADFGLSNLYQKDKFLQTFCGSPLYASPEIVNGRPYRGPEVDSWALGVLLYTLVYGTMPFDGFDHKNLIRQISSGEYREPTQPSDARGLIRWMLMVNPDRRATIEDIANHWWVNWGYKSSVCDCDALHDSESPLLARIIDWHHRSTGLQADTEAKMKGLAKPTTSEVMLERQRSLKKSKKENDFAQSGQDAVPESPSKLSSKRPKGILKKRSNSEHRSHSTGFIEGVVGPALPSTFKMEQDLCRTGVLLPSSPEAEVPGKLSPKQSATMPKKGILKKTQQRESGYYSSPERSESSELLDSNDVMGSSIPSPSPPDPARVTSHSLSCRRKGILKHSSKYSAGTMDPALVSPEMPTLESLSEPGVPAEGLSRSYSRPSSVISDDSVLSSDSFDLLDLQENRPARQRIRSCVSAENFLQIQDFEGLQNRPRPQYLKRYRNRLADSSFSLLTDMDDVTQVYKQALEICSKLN

[5] = molecular target: T2, NUAK family SNF1-like kinase 2 (Homo sapiens) (UniProt Q9H093); test: Selectivity interaction (KinomeScan (DiscoverX)) EUB0000045b NUAK2
T2 sequence (whole entry): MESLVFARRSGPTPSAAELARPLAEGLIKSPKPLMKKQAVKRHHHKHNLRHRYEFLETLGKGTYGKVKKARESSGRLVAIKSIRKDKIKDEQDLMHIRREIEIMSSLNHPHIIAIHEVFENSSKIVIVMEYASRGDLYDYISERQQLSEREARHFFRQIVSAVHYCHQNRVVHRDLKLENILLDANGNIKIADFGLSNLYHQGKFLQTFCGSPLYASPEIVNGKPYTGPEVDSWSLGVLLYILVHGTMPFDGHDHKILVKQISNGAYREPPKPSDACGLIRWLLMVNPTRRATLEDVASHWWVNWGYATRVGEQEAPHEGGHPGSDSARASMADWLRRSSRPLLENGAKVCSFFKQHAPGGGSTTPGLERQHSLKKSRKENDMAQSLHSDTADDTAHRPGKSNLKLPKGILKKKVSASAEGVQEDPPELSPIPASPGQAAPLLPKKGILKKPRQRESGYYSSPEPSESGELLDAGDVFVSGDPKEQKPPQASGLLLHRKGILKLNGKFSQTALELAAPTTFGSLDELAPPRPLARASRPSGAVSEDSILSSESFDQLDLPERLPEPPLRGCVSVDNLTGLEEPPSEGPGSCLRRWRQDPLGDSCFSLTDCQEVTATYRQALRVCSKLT

[6] = test system: Fibroblast growth factor receptor 3 (Homo sapiens), P22607 [G697C]; test: (§1) Selectivity interaction (KinomeScan (DiscoverX)) EUB0000695a FGFR3; conditions: at 100 nM
[7] = molecular target: Fibroblast growth factor receptor 3 (Homo sapiens, UniProt P22607); test: as §1; conditions: at 100 nM
[8] = molecular target: BMP-2-inducible protein kinase (Homo sapiens) (UniProt Q9NSY1); test: Selectivity interaction (KinomeScan (DiscoverX)) EUB0001079a BMP2K; conditions: at 1 µM
Chain of BMP-2-inducible protein kinase (Homo sapiens) (Q9NSY1 whole entry, looked up): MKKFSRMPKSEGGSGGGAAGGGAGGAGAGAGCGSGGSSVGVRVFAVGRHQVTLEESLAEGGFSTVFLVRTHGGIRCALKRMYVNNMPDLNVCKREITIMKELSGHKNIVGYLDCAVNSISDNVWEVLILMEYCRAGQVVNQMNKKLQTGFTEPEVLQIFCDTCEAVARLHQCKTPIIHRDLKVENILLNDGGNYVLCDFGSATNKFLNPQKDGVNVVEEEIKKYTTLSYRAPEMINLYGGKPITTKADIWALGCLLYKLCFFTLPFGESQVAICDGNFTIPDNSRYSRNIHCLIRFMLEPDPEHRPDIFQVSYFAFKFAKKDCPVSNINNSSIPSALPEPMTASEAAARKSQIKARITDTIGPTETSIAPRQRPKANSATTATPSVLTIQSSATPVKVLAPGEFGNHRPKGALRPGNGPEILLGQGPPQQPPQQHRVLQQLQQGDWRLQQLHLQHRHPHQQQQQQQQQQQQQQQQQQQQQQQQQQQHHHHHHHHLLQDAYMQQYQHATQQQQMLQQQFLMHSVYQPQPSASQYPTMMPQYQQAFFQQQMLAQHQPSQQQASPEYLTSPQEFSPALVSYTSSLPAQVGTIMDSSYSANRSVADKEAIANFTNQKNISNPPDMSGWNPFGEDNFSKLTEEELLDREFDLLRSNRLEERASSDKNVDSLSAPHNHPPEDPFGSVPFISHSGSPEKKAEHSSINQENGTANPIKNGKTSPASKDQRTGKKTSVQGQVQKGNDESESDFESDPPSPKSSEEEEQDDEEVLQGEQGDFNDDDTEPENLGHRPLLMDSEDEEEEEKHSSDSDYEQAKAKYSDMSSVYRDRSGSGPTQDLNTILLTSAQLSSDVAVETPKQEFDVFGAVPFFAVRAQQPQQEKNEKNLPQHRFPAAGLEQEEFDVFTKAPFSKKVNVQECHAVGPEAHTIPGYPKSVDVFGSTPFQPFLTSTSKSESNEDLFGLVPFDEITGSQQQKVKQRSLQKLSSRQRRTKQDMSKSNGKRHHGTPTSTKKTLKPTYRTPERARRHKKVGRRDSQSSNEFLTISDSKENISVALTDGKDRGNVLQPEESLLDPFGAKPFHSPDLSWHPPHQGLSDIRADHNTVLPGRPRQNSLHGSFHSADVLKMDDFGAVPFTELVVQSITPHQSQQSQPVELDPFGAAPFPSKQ

[9] = molecular target: T1, NUAK family SNF1-like kinase 1 (Homo sapiens); test: Selectivity interaction (KinomeScan (DiscoverX)) EUB0000666a NUAK1; conditions: at 10 µM
[10] = molecular target: Histone-lysine N-methyltransferase, H3 lysine-36 specific (Homo sapiens) (UniProt Q96L73); test: Selectivity interaction (PWWP, WD40, and Tudor domain panel (DSLS measurements, literature)) EUB0000270b NSD1
[11] = molecular target: Proto-oncogene tyrosine-protein kinase Src (Homo sapiens, UniProt P12931); test: Selectivity interaction (KinomeScan (DiscoverX)) EUB0001868a SRC; conditions: at 1 µM
[12] = molecular target: G protein-coupled receptor kinase 6 (Homo sapiens) (UniProt P43250); test: Selectivity interaction (Upstate Kinase Profiler service (Millipore)) EUB0000056c GRK6; conditions: at 1 µM
Chain of G protein-coupled receptor kinase 6 (Homo sapiens) (P43250 whole entry, looked up): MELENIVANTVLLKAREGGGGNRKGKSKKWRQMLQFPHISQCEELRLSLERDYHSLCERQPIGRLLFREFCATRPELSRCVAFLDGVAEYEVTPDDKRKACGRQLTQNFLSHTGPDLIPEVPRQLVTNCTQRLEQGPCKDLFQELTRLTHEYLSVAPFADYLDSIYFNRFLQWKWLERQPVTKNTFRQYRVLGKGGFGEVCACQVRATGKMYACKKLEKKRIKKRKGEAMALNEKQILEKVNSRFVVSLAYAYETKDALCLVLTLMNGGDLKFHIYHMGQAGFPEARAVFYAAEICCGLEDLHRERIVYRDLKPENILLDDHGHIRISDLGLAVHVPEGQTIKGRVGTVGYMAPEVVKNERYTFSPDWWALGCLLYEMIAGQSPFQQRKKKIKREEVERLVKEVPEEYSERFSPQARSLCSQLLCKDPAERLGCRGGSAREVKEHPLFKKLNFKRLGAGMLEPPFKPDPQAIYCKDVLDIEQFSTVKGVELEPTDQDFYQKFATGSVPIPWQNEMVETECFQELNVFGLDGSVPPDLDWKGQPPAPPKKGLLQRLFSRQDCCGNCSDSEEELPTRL

[13] = molecular target: Dual specificity protein kinase CLK3 (Homo sapiens, UniProt P49761); conditions: at 1 µM
Chain of Dual specificity protein kinase CLK3 (P49761 whole entry, looked up): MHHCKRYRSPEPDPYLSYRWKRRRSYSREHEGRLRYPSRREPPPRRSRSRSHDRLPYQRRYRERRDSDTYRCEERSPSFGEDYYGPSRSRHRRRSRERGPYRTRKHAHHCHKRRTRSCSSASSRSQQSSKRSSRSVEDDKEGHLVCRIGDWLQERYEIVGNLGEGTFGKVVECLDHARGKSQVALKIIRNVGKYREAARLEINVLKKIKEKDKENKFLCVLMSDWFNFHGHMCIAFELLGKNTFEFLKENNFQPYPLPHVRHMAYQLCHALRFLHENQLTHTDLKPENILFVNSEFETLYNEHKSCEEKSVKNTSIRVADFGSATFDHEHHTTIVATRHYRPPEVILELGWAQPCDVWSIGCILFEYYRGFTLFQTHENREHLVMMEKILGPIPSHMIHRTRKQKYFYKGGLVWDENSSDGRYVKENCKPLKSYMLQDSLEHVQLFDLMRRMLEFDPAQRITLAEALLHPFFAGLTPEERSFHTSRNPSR

[14] = molecular target: Calcium/calmodulin-dependent protein kinase type II subunit delta (Homo sapiens) (UniProt Q13557); test: Selectivity interaction (KinomeScan (DiscoverX)) EUB0000607a CAMK2D; conditions: at 10 µM
Chain of Calcium/calmodulin-dependent protein kinase type II subunit delta (Homo sapiens) (Q13557 whole entry): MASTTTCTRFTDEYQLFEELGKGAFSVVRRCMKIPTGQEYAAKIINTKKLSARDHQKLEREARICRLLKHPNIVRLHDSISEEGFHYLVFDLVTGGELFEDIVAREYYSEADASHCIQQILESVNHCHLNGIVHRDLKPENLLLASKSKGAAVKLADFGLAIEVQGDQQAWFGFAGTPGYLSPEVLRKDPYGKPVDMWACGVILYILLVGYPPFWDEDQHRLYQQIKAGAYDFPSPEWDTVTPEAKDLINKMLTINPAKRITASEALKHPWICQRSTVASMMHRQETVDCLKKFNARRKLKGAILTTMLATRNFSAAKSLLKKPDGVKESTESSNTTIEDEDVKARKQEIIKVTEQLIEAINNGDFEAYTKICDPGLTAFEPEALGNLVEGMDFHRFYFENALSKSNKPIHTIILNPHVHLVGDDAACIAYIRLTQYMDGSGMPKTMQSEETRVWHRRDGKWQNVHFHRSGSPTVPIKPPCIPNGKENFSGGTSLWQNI

[15] = molecular target: Serine/threonine-protein kinase PAK 4 (Homo sapiens, UniProt O96013); test: Selectivity interaction (Kinase panel (DSF assay)) EUB0001558a PAK4
Chain of Serine/threonine-protein kinase PAK 4 (O96013 whole entry, looked up): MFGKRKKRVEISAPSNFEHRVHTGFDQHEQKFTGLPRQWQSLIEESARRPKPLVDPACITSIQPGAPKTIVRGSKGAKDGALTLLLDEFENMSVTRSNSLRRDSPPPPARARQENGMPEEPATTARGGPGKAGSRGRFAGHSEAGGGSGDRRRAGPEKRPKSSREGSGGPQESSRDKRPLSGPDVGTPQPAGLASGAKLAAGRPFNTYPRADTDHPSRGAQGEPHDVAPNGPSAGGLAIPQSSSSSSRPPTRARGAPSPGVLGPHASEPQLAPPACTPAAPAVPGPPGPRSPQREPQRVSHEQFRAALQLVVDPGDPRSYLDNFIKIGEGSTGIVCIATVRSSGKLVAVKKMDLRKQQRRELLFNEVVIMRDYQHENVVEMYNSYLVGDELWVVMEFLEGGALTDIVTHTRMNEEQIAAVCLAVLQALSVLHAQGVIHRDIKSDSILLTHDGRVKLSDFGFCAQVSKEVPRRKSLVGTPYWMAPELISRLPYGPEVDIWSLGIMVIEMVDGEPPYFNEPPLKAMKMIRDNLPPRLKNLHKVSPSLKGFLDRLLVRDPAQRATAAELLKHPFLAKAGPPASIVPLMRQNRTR

[16] = molecular target: T3, Serine/threonine-protein kinase 17B (Homo sapiens) (UniProt O94768); test: Selectivity interaction (Kinase panel (DSF assay)) EUB0001558a STK17B
T3 sequence (whole entry): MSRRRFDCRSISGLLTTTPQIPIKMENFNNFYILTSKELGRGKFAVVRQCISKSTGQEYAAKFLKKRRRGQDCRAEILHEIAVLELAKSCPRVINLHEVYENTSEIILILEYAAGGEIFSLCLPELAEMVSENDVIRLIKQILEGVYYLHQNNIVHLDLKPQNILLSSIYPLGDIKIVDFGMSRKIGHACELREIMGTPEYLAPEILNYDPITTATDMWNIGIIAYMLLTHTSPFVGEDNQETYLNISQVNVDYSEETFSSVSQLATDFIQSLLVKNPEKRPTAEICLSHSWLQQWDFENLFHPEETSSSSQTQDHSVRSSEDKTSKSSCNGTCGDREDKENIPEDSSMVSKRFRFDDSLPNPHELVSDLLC

[17] = molecular target: Serine/threonine-protein kinase Nek7 (Homo sapiens) (UniProt Q8TDX7); test: Selectivity interaction (ActivX KiNativ screen (kinase selectivity in THP-1 cell lysates)) EUB0000639a NEK7; assay type: subcellular; conditions: lysate, at 1 µM
Chain of Serine/threonine-protein kinase Nek7 (Homo sapiens) (Q8TDX7 whole entry, looked up): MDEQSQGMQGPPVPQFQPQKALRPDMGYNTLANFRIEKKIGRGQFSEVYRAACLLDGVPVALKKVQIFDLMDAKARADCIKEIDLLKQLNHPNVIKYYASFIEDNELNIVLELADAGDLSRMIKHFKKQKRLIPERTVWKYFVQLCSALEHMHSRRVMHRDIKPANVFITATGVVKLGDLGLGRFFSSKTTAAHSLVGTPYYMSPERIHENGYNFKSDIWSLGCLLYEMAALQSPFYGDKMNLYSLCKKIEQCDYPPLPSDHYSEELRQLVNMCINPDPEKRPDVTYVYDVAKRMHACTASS

[18] = molecular target: Mitogen-activated protein kinase 8 (Homo sapiens, UniProt P45983); test: Selectivity interaction (KinomeScan (DiscoverX)) EUB0000092b MAPK8; conditions: at 10 µM
CDK9/cyclin T1 = CDK9/cyclin T1 (Homo sapiens, UniProt P50750); test: Selectivity interaction (Radiometric kinase assay ) EUB0000090b CDK9; assay type: protein-complex assay
Chain of CDK9/cyclin T1 (O60563 whole entry): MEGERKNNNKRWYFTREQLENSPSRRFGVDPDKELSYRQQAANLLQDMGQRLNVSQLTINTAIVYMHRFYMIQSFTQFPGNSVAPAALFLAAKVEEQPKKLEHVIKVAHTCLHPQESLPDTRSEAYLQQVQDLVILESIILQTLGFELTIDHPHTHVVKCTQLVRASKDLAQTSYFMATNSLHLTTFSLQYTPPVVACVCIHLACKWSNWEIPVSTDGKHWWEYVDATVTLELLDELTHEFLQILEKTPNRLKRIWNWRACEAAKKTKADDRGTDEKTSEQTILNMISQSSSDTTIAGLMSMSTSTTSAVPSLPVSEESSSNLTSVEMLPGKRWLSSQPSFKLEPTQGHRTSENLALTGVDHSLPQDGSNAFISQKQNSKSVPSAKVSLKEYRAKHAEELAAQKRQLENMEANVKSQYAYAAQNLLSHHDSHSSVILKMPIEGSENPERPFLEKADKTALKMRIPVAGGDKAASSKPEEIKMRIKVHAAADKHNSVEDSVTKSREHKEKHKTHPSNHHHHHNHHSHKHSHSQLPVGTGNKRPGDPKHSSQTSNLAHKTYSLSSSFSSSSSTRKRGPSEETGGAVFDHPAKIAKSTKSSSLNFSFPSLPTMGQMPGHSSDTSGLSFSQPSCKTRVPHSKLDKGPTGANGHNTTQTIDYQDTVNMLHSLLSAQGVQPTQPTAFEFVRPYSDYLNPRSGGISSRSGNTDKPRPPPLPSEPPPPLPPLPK
Chain of CDK9/cyclin T1 (P50750 whole entry): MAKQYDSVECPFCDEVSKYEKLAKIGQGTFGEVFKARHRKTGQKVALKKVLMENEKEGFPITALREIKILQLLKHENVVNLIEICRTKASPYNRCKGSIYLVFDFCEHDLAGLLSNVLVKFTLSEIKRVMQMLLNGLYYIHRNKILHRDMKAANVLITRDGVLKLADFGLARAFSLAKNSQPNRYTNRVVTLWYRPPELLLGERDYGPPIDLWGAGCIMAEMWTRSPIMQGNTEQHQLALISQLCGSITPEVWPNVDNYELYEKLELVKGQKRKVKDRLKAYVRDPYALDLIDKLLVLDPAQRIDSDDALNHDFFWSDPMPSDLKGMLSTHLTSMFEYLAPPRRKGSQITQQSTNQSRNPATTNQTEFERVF

How did the % binding [1] turn out when `COc1cc(N(C)c2ccnc3ccc(C(F)(F)F)cc23)cc(OC)c1OC` was run?
Its % binding is 100%.

And the % binding [2]?
Its % binding is 31%.

With `CNCCN1CCC(c2cc(CN(C)C(=O)c3cccc(Oc4ccccc4)c3)ccn2)CC1` as the compound, how does the % activity [3] read?
The % activity was > 90%.

For `C=CC(=O)Nc1cc(-n2c(=O)ccc3cnc4ccc(-c5ccc(NS(C)(=O)=O)cc5)cc4c32)ccc1C`, which % of control ([4]; at 1 µM) is on record?
The % of control was 100%.

And the % of control ([4]; at 10 µM)?
Its % of control is 76%.

And the % of control ([5]; at 1 µM)?
Its % of control is 100%.

What about the % of control ([5]; at 10 µM) of the same compound?
The % of control was 100%.

Which % of control [6] does the source give for `Cc1cc(F)c(C(=O)Nc2cccc(-c3nncn3C(C)C)n2)cc1-n1cnc(C2CC2)c1` here?
The % of control was 88%.

And the % of control [7]?
Its % of control is 93%.

`Nc1cnc(N2CCc3cc(S(=O)(=O)Nc4c(F)cc(Cl)cc4F)cc(N4CCCC4=O)c32)nc1` [TP-020n] was tested. Which % of control [8] did it give?
Its % of control is 88%.

`O=C(NOC[C@H](O)CO)c1ccc(F)c(F)c1Nc1ccc(I)cc1F` was tested. Which % of control [9] did it give?
Its % of control is 81%.

For `Cc1cc(CN)cc(C)c1-c1ncn(C)c1-c1cncn1C`, which dTagg [10] is on record?
Its dTagg is 0.1 K.

With `Cc1cc(-c2ccnc(Nc3cnn(C)c3)n2)ccc1CNC(=O)N1CC(OC(C)C)C1` as the compound, how does the % of control [11] read?
The % of control was 31%.

What does the source list for `Cc1ccc(-c2ccc3c(ccc4sc5c(c43)NC[C@@H](C)NC5=O)n2)cn1`?
% of inhibition [12]: 10%; % of inhibition [13]: 24%

Which % of control [14] does the source give for `CNC(=O)Nc1ccc(-c2nc(N3CC4CCC(C3)O4)c3cnn(C4CCC5(CC4)OCCO5)c3n2)cc1` here?
Its % of control is 100%.

What does the source list for `CC(C)(O)[C@H](F)CN1Cc2cc(NC(=O)c3cnn4cccnc34)c(N3CCOCC3)cc2C1=O`?
dTM [15]: 1.1 K; dTM [16]: 1.7 K

With `CC[C@@H]1[C@H](F)C(=O)N[C@@H]1COc1nccc2cc(C(N)=O)c(OC)cc12` [ZIMLOVISERTIB] as the compound, how does the % of inhibition [17] read?
Its % of inhibition is 2%.

Which % of control [18] does the source give for `CCC(=O)N1CCN(c2ccc(-n3c(=O)ccc4cnc5ccc(-c6cnc7ccccc7c6)cc5c43)cc2C(F)(F)F)CC1` here?
The % of control was 22%.

Which IC50 (CDK9/cyclin T1) does the source give for `CN(C)C/C=C/C(=O)Nc1ccc(C(=O)N2CCCC(Nc3ncc(Cl)c(-c4c[nH]c5ccccc45)n3)C2)cc1` (stereo unspecified) here?
Its IC50 is 10.5 µM.
